The compounds below were run on Mus musculus (assay: Compound was tested for neurotoxic property after intracranial administration in mice). Conditions: in vivo, other.
Format: ADME, organism-based

| SMILES | LD50 [µg] |
| --- | --- |
| NCCc1c[nH]c2c1C(=O)C(=O)C=C2O | 20 |
| NCCc1cc(O)c(O)cc1N | 50 |
| CC(N)Cc1cc(O)c(O)cc1N (stereo unspecified) | 45 |
| NCCc1c[nH]c2c(O)cc(O)cc12 | 55 |
| NCCc1cc(O)c(O)cc1O [OXIDOPAMINE] | 80 |

Species: Mus musculus
Assay: Compound was tested for lowering the norepinephrine levels in mouse brain expressed as percent of control values
Format: functional
Conditions: not given

| SMILES | Activity [%] |
| --- | --- |
| NCCc1c[nH]c2c1C(=O)C(=O)C=C2O | 87 |

Source: ChEMBL document CHEMBL1123523, “Oxidation of 5-hydroxytryptamine and 5,7-dihydroxytryptamine. A new oxidation pathway and formation of a novel neurotoxin” (J Med Chem, 1986)
